{"source": "paper PMC8894198", "about": "“Biosynthetic Microcin J25 Exerts Strong Antibacterial, Anti-Inflammatory Activities, Low Cytotoxicity Without Increasing Drug-Resistance to Bacteria Target” (Frontiers in Immunology, 2022)", "key": {"[1]": {"details": "remaining peptide by RP-HPLC, n = 6", "procedure": "(§1) Figure 3 Stability and activity of MccJ25 in different conditions and biological fluids. Various concentration of MccJ25 was incubated with different temperatures (A), pH values (B), (C) SIF, SGF, and serum. Proteases (D-F) for different indicated times. Afterwards, the amount of the remaining MccJ25 was determined by RP-HPLC. […] NE: negative control; Chy: chymotrypsin. […] Effects of temperature (G), RT: room temperature, pH values (H), proteases (I), SGF (J), SIF (K), and serum (L) on the inhibition of E coli K88 by MccJ25. The zone of inhibition is often used to clarify the antimicrobial activity of MccJ25. […] Chy refers to chymotrypsin. Data are presented as the mean of 6 biological replicates ± standard error of mean form."}, "[2]": {"details": "RP-HPLC", "procedure": "(§2) The simulated gastric fluid (SGF) and simulated intestinal fluid (SIF) were mainly based on the relevant contents of the Chinese Pharmacopoeia as described previously ([26]). SGF was configurated with 10 mg/mL pepsin, 0.03 M NaCl was used to blend the pH to 1.5, while SIF was configured with 10 mg/mL trypsin, 0.05 M KH2PO4 was used to blended pH as 7. SGF and SIF were then measured separately, and the antimicrobial activity of MccJ25 in serum was determined. E. coli K88 cells were grown in MHB (Difco Laboratories, Detroit, MI, USA). In short, 1 mL of the bacterial suspension and MccJ25 were transferred into 9 mL of medium. The control group was as follows: no MccJ25 was added to it. E. coli K88 cells with a live cell count maintained at approximately 10^5 cells per milliliter were inoculated on LB agar, which was then poured into plates equipped with Oxford cups, thus forming wells. Then, MccJ25 (1 × MIC) previously treated with SGF, SIF and serum for 2, 4, and 6 h was added to these wells. One of the agar substances covering the wells needs to be incubated overnight at 37°C, and finally, the size of its growth inhibition area, i.e., the diameter, needs to be determined.\nFigure 3 Stability and activity of MccJ25 in different conditions and biological fluids. […] Afterwards, the amount of the remaining MccJ25 was determined by RP-HPLC. […]"}, "in vitro [3]": {"experiment": "in vitro", "procedure": "as §2, §1"}, "in vitro [4]": {"experiment": "in vitro", "procedure": "(§3) The resistance of MccJ25 to pepsin, trypsin and chymotrypsin was evaluated based on previous studies ([26]), with minor modifications. E. coli K88 cells were prepared (approximately 1 × 10^7 CFU/mL), and 1 mL of the bacterial suspension and MccJ25 were transferred into 9 mL of medium. For the control, MccJ25 was not added. LB agar inoculated with E. coli K88 cells (~10^5 viable cells/mL) was poured onto a plate containing an Oxford cup to form individual wells. Then, 2 and 4 h MccJ25 (1 × MIC) previously subjected to different treatments were added to the wells. The agar overlay was incubated overnight at 37°C, and the diameter of the growth inhibition zone was measured.\nas §1", "remark": "listed apart in the source"}, "chymotrypsin": {"system": "chymotrypsin", "experiment": "in vitro", "details": "RP-HPLC", "procedure": "as §3, §1"}, "RAW264.7 cells [5]": {"system": "RAW264.7 cells", "experiment": "MTT cytotoxicity assay", "assay_type": "cell-based, murine", "details": "different concentrations of MccJ25 up to 512 μg/mL, 24 h, 37°C; vs control; n = 6", "procedure": "(§4) To test whether MccJ25 could have an effect on the metabolic activity of the cells, the necessary MTT assay was performed (Roche Molecular Biochemistry, Mannheim, Germany) as previously described ([28], [29]). The whole operation process can be briefly summarized as follows: first, various concentration gradients of MccJ25 solution were added, the ambient temperature of the cell secondary incubation was maintained at 37°C, the CO2 concentration was maintained at 5%, and the incubation time needed to reach 24 h. The control group was the cells without any treatment. Afterwards, 20 μL of MTT solution (concentration 5 mg/mL, medium DPBS) was added to all wells and incubated for 3.5 h at a temperature of 37°C and a CO2 concentration of 5%. Components of the medium were removed by centrifugation, and the MTT metabolites were resuspended in 200 μL of dimethyl sulfoxide. The absorbance value at 560 nm was measured, and the background value was the absorbance at 670 nm, which needed to be subtracted from the background value to obtain the absorbance value."}, "Caco-2 cells [6]": {"system": "Caco-2 cells", "experiment": "MTT cytotoxicity assay", "assay_type": "cell-based, human", "details": "different concentrations of MccJ25 up to 512 μg/mL, 24 h, 37°C; vs control; n = 6", "procedure": "as §4"}, "Caco-2 cells [7]": {"system": "Caco-2 cells", "details": "2 to 512 μg/mL MccJ25, 24 h, 37°C; n = 6", "procedure": "(§5) Certain adjustments were made to Dulbecco’s modified Eagle’s medium (DMEM), i.e., 20% fetal bovine serum (FBS) was added, and human colon cancer cell line Caco-2 and murine cell line macrophage RAW264.7 cells were inoculated into the adjusted medium, with the inoculum density maintained at 2 × 10^4 cells/mL, placed in 96-well plates until the overall confluence ratio reached 80% to 90%, respectively.\n(§6) The secretion of the cell membrane enzyme lactate dehydrogenase (LDH) was measured on the basis of a colorimetric assay. Caco-2 and RAW264.7 cells (2 × 10^4 cells/well) as controls without or with concentrations of 2 to 512 μg/mL MccJ25 were incubated for 24 h at 37°C in 5% CO2. A simple step was to transfer 100 μL of cell culture medium from each well to a new 96-well plate and measure the activity of LDH based on the LDH cytotoxicity assay kit (Clontech, Mountain View, CA, USA) according to the manufacturer’s instructions. The catalyst and dye solutions were mixed well and added to the wells containing cell culture medium and then incubated for 30 min at room temperature. The absorbance at 490 and 670 nm was measured with a microplate reader (Model SynergyMx, BioTek, Winooski, VT, USA). Absorbance values were corrected by subtracting the […]."}, "RAW264.7 cells [8]": {"system": "RAW264.7 cells", "details": "2 to 512 μg/mL MccJ25, 24 h, 37°C; n = 6", "procedure": "as §5, §6"}, "[9]": {"system": "mouse erythrocytes (mRBCs)", "details": "512 μg/mL (highest concentration), 8% RBCs in PBS, 37°C, 1 h, A414", "procedure": "(§7) Fresh mouse/pig erythrocytes (mRBCs/pRBCs) were collected from well-grown animals, centrifuged at 4,200 rpm and washed well with phosphate-buffered saline (PBS) to ensure that their supernatants were free of impurities and remained clear. The liquid was added to the 96-well plate after 2-fold dilution of MccJ25 prepared with PBS, and the final concentration of RBCs was introduced at 8%. The plate was stirred less vigorously to homogenize the liquid and incubated at 37°C for 1 h. The supernatant was then centrifuged at 4,500 rpm for 10 min, and its absorbance value at 414 nm was measured. Three replicate groups were set up for all the above experiments, and the percentage hemolysis was calculated as follows: percentage hemolysis = [(A414 in peptide solution - A414 in PBS)/(A414 in […] - A414 in PBS)]. ×100, where 100% hemolysis refers to the absorbance of RBCs exposed to 1% Triton X-100 in the environment and 0% hemolysis refers to the absorbance of RBCs exposed to PBS. The positive control used in this experiment was melittin."}, "pig erythrocytes (pRBCs)": {"system": "pig erythrocytes (pRBCs)", "details": "512 μg/mL (highest concentration), 8% RBCs in PBS, 37°C, 1 h, A414", "procedure": "as §7"}, "IPEC-J2 cells": {"system": "IPEC-J2 cells", "details": "previous study; ref [29]; cited from earlier work", "excerpt": "Microcins, AMPs, are a large class of antimicrobial agents that can be employed in the treatment of various infectious diseases. […] Cytotoxicity, including the hemolysis of erythrocytes, is one of the main factors limiting the practical application of AMPs. Therefore, it is crucial to have a clear understanding of the c ..."}, "E. coli K88 [10]": {"system": "E. coli K88", "assay_type": "cell-based", "details": "sublethal levels, daily sequential passages", "procedure": "To quantify the production status of the bacteria, the bacterial density was measured after incubating for 24 h. Cultures with the second highest concentration allowed to grow (OD600 ≥ 2) were diluted 1:100 with MccJ25 MHB at different concentrations than those described above. Cultures that grew above the indicated MIC levels were plated on LB agar plates, and their MIC levels were determined by the broth macrodilution method."}, "E. coli K88 [11]": {"system": "E. coli K88", "experiment": "MIC variability (cross-resistance) after 5 days at sub-MIC", "assay_type": "cell-based", "details": "after culture under ampicillin (0.25 × MIC) for 5 days", "procedure": "A 1:100 dilution of the bacteria was performed daily in the above MHB. Aliquots of the culture medium were used daily for 5 days thereafter to determine the MICs of ampicillin, tetracycline, aureomycin, and kanamycin. This study was performed based on our previous study ([29])."}}, "note": "“Also recorded” adds a separate entry of the source. Where a SMILES comes first, the peptide text is derived from it. Bridges are numbered along the chain shown (N, C = ends)."}
{"molecule": "CC[C@H](C)[C@H](NC(=O)CNC(=O)[C@@H](NC(=O)[C@H](Cc1ccccc1)NC(=O)[C@H](Cc1ccc(O)cc1)NC(=O)[C@@H]1CCC(=O)NCC(=O)NCC(=O)N[C@@H](C)C(=O)NCC(=O)N[C@@H](Cc2cnc[nH]2)C(=O)N[C@@H](C(C)C)C(=O)N2CCC[C@H]2C(=O)N1)C(C)C)C(=O)NCC(=O)N[C@H](C(=O)N1CCC[C@H]1C(=O)N[C@H](C(=O)N[C@@H](CO)C(=O)N[C@@H](Cc1ccccc1)C(=O)N[C@@H](Cc1ccc(O)cc1)C(=O)NCC(=O)O)[C@@H](C)CC)[C@@H](C)O", "note": "[MccJ25, microcin J25] (GGAGHVPEYFVGIGTPISFYG-OH; lactam N-8)", "values": [{"measurement": "stability of intact MccJ25 at high temperature", "setting": "[1]; 121°C, 20 min", "result": "able to maintain its own steady state"}, {"measurement": "stability of intact MccJ25 at different pH", "setting": "[1]; pH 2.0 to 9.0, 2 h", "result": "able to maintain its own steady state"}, {"measurement": "intact MccJ25 after 6 h of incubation in SGF", "setting": "[2]; SGF pH 1.5, 10 mg/mL pepsin, 6 h", "result": "still present"}, {"measurement": "concentration of intact MccJ25 in SGF", "setting": "[2]; SGF: 10 mg/mL pepsin, 0.03 M NaCl, pH 1.5, up to 6 h, n = 6", "result": "decreased slowly"}, {"measurement": "intact MccJ25 after 6 h of incubation in serum", "setting": "in vitro [3]; 6 h, RP-HPLC", "result": "still present"}, {"measurement": "intact MccJ25 after 6 h of incubation in SIF", "setting": "in vitro [3]; SIF pH 7, 10 mg/mL trypsin, 6 h, RP-HPLC", "result": "still present"}, {"measurement": "half-life", "setting": "in vitro [3]; mouse, serum", "result": 4, "unit": "h"}, {"measurement": "half-life", "setting": "in vitro [3]; simulated intestinal fluid (SIF) with 10 mg/mL trypsin, pH 7", "result": 2, "unit": "h"}, {"measurement": "metabolised at 1 h", "setting": "in vitro [4]; chymotrypsin (isolated protease)", "result": 70, "unit": "%"}, {"measurement": "remaining at 6 h", "setting": "in vitro [4]; pepsin (isolated protease)", "result": "> 70", "unit": "%"}, {"measurement": "remaining at 6 h", "setting": "in vitro [4]; trypsin (isolated protease)", "result": "> 70", "unit": "%"}, {"measurement": "level of intact MccJ25 exposed to chymotrypsin", "setting": "chymotrypsin; 2 and 4 h", "result": "below the detection limit"}, {"measurement": "intact MccJ25 after exposure to chymotrypsin", "setting": "chymotrypsin; after 6 h", "result": "below the detection limit"}, {"measurement": "cell viability (MTT)", "setting": "RAW264.7 cells [5]", "result": "nontoxic; also recorded: no significant differences in cell survival"}, {"measurement": "cell viability (MTT)", "setting": "Caco-2 cells [6]", "result": "nontoxic; also recorded: no significant differences in cell survival"}, {"measurement": "LDH activity (plasma membrane integrity)", "setting": "Caco-2 cells [7]", "result": "did not stimulate LDH activity"}, {"measurement": "LDH activity (plasma membrane integrity)", "setting": "RAW264.7 cells [8]", "result": "did not stimulate LDH activity"}, {"measurement": "hemolysis", "setting": "[9]", "result": 4.16, "unit": "%"}, {"measurement": "hemolysis", "setting": "pig erythrocytes (pRBCs)", "result": 4.07, "unit": "%"}, {"measurement": "cytotoxicity", "setting": "IPEC-J2 cells", "result": "not cytotoxic"}]}
{"molecule": "CC1(C)S[C@@H]2[C@H](NC(=O)[C@H](N)c3ccccc3)C(=O)N2[C@H]1C(=O)O", "note": "[ampicillin]", "values": [{"measurement": "time of serial passage until resistance", "setting": "E. coli K88 [10]", "result": "≤ 4", "unit": "days"}, {"measurement": "elevation of the MIC of the antibiotic", "setting": "E. coli K88 [11]", "result": 2, "unit": "fold"}]}
{"molecule": "O=C(O)c1cn(C2CC2)c2cc(N3CCNCC3)c(F)cc2c1=O", "note": "[ciprofloxacin]", "values": [{"measurement": "elevation of the MIC of the antibiotic", "setting": "E. coli K88 [11]", "result": 2, "unit": "fold"}]}
{"molecule": "NC[C@H]1O[C@H](O[C@H]2[C@H](O)[C@@H](O[C@H]3O[C@H](CO)[C@@H](O)[C@H](N)[C@H]3O)[C@H](N)C[C@@H]2N)[C@H](O)[C@@H](O)[C@@H]1O", "note": "[kanamycin]", "values": [{"measurement": "elevation of the MIC of the antibiotic", "setting": "E. coli K88 [11]", "result": 2, "unit": "fold"}]}
{"molecule": "CN(C)[C@@H]1C(O)=C(C(N)=O)C(=O)[C@@]2(O)C(O)=C3C(=O)c4c(O)cccc4[C@@](C)(O)[C@H]3C[C@@H]12", "note": "[tetracycline]", "values": [{"measurement": "time of serial passage until resistance", "setting": "E. coli K88 [10]", "result": "≤ 3", "unit": "days"}, {"measurement": "elevation of the MIC of the antibiotic", "setting": "E. coli K88 [11]", "result": 2, "unit": "fold"}]}
